{"source": "paper PMC8358460", "about": "“Structural basis for the binding of the cancer targeting scorpion toxin, ClTx, to the vascular endothelia growth factor receptor neuropilin-1” (Current Research in Structural Biology, 2021)", "key": {"[1]": {"target": "T1, human NRP1-b1 domain (Homo sapiens, UniProt O14786)", "T1 sequence (O14786 273-427)": "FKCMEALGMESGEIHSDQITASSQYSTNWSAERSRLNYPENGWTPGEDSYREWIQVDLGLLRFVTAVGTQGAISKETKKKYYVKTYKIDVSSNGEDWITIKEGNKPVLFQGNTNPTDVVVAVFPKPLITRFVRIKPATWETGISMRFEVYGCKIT", "test": "ITC measurement of binding to NRP1-b1 domain", "details": "pH 5.5, 32 °C"}, "[2]": {"target": "T1, human NRP1-b1 domain", "test": "ITC competition: ClTx injected into NRP1-b1 in presence of EG00229", "assay_type": "binding", "details": "800 μM ClTx into 40 μM NRP1-b1 + 200 μM EG00229; 50 mM sodium citrate pH 5.5, 150 mM NaCl, 32 °C"}, "[3]": {"target": "T1, human NRP1-b1 domain", "test": "NMR competition titration of 15N-ClTx/NRP1-b1 with EG00229", "assay_type": "binding", "details": "413 μM EG00229 added to 55 μM 15N-ClTx + 125 μM NRP1-b1; 50 mM sodium citrate pH 5.5, 150 mM NaCl, 5% D2O, 298 K"}}, "note": "Entries after “also recorded” stand apart in the source; their conditions may differ."}
{"smiles": "NC(N)=NCCC[C@H](NC(=O)c1sccc1NS(=O)(=O)c1cccc2nsnc12)C(=O)O", "note": "[EG00229]", "values": [{"measurement": "binding strength, in words", "setting": "[1]", "value": "strong binding"}, {"measurement": "inhibition of the ClTx–NRP1-b1 interaction by EG00229", "setting": "[2]", "value": "fully inhibited; also recorded: completely blocks chlorotoxin from binding"}, {"measurement": "recovery of backbone signal of 15N ClTx on addition of EG00229", "setting": "[3]", "value": "completely recovered"}]}
